Like-named read-outs stand apart in the source and are kept apart here. Bounds are passed on as bounds.

Experiment in all cases: MIC by broth microdilution (antibacterial and synergistic activity)
What all share (format): cell-based
Background: Broth dilution looks for growth in wells or tubes with falling amounts of substance.

The subject of assay [1] is A. baumannii 19606 (strain 8, OXA-24). Conditions: for MIC: Acinetobacter baumannii. The method, then:
(§1) Compounds of the present invention alone, avibactam (AVI) alone, relebactam (REL) alone, meropenem (MER) alone, imipenem (IMI) alone, and as a combination of compounds of the present invention, or avibactam or relebactam with test antibiotic (meropenem or imipenem) was tested for antimicrobial activity by determining minimum inhibitory concentration (MIC, mg/L) using the broth microdilution method according to the guidelines of the Clinical Laboratories and Standards Institute (“Methods for Dilution Antimicrobial Susceptibility Tests for Bacterial that Grow Aerobically”, Approved standard, 7th ed., Clinical and Laboratories Standards Institute (CLSI) Document M7-A8, Wayne, Pa., USA, 2009). Meropenem or imipenem as a test antibiotic compound was dissolved in DMSO, and then diluted in microbial growth medium (Mueller-Hinton Broth II, cation adjusted) resulting in a final concentration range of 0.031-64 mg/L in serial two-fold dilution. In all cases the final DMSO concentration was less than 0.5%. Bacteria were added to 96-well microtitre plates containing the serial two-fold dilutions of the compounds; the final cell density was approximately 5×10^5 colony forming units/mL (CFU/mL). Plates were incubated at 37° C. for 18-24 hours and read visually. The MIC, i.e. the lowest concentration of the test compound that inhibited visible growth of the bacteria, was recorded. The same assay conditions were used when the compounds of present invention alone, avibactam or relebactam alone (as a control), and as a combination of the present invention each compound, or avibactam or relebactam with test meropenem or imipenem antibiotic compound was tested for minimum inhibitory concentration (MIC, mg/L). While test meropenem or imipenem was serially diluted as described above, a constant concentration of avibactam, or relebactam or the present invention each compound of 4 mg/L was used.
(§2) Bacterial strains that were used to evaluate the antimicrobial activity using the MIC determination included but were not limited to E. coli clinical isolate (strain 1, TEM-1), E. coli 8739 (strain 2, CTX-M15), K. pneumoniae clinical isolate (strain 3, SHV-1), K. pneumoniae 700603 (strain 4, KPC-3, TEM-1), E. cloacae clinical isolate (strain 5, P99), E. cloacae 700323 (strain 6, AmpC), A. baumannii clinical isolate (strain 7, OXA-23, OXA-40), A. baumannii 19606 (strain 8, OXA-24), P. aeruginosa clinical isolate (strain 9, KPC-2), P. aeruginosa 9027 (strain 10, AmpC).

In assay [2] the test system is A. baumannii clinical isolate (strain 7, OXA-23, OXA-40). Conditions: strain 7 (OXA-23/40); for MIC: Acinetobacter baumannii. The method, then: as §1, §2
Assay [3] deals with E. cloacae 700323 (strain 6, AmpC). Conditions: strain 6 (AmpC); for MIC: Enterobacter cloacae. The method, then: as §1, §2
For assay [4], the system named is E. cloacae clinical isolate (strain 5, P99). Conditions: strain 5 (P99); for MIC: Enterobacter cloacae. Here is the method: as §1, §2
In assay [5] the test system is E. coli 8739 (strain 2, CTX-M15). Conditions: Escherichia coli, read-out: Antibacterial activity, MIC, inhibitor Alone. Here is the method: as §1, §2
Assay [6] concerns E. coli clinical isolate (strain 1, TEM-1). Particulars: strain 1 (TEM-1); for MIC: Escherichia coli. The method, then:
as §1, §2

Assay [7] has as its system K. pneumoniae 700603 (strain 4, KPC-3, TEM-1). Conditions: strain 4 (KPC-3, TEM-1); for MIC: Klebsiella pneumoniae. The method, then:
as §1, §2

For assay [8], the system named is K. pneumoniae clinical isolate (strain 3, SHV-1). Particulars: strain 3 (SHV-1); for MIC: Klebsiella pneumoniae. Here is the method:
as §1, §2

In assay [9] the test system is P. aeruginosa 9027 (strain 10, AmpC). Particulars: strain 10 (AmpC); for MIC: Pseudomonas aeruginosa. Here is the method: as §1, §2
Assay [10] has as its system P. aeruginosa clinical isolate (strain 9, KPC-2). Particulars: strain 9 (KPC-2); for MIC: Pseudomonas aeruginosa. Here is the method:
as §1, §2

The mark [11] stands for this setting: read-out: Antibacterial activity, MIC, inhibitor Alone.
[12] abbreviates: compound alone, no antibiotic, read-out: Antibacterial activity, MIC, inhibitor Alone.
[13] abbreviates: imipenem alone, read-out: MIC, IMI Alone.
Where [14] appears, read: meropenem alone, read-out: MIC, MER Alone.

As usually defined, the MIC is the lowest concentration found to suppress growth. Turning to `NC(=O)[C@@H]1CC[C@@H]2CN1C(=O)N2OS(=O)(=O)O` [AVI, avibactam, reference compound], the MIC in [1] (setting [11]), in assay [2] (setting [12]), in assay [3] (setting [12]), in assay [4] (setting [12]), in assay [5] and in assay [6] (setting [12]) was more than 64 µg/mL in each case. In addition, the MIC in assay [7] (setting [12]), in assay [8] (setting [12]), in assay [9] (setting [12]) and in assay [10] (setting [12]) was more than 64 µg/mL in each case.
For the compound `COC(=O)CS(=O)(=O)NC(=N)[C@@H]1CC[C@@H]2CN1C(=O)N2OS(=O)(=O)[O-].[Na+]` [Ex. 2, Sodium (2S,5R)-2-(N-((2-methoxy-2-oxoethyl)sulfonyl)caramimidoyl)-7-oxo-1,6-diazabicyclo[3.2.1]octan-6-yl sulfate], the “MIC of meropenem in combination with the inhibitor (MER + inhibitor)” value is 0.5 µg/mL in assay [1] (strain 8 (OXA-24), inhibitor at constant 4 mg/L); less than 0.125 µg/mL in assay [2] (inhibitor at constant 4 mg/L); less than 0.125 µg/mL in [3] (inhibitor at constant 4 mg/L); less than 0.125 µg/mL in assay [4] (inhibitor at constant 4 mg/L); less than 0.125 µg/mL in assay [6] (inhibitor at constant 4 mg/L); less than 0.125 µg/mL in assay [7] (inhibitor at constant 4 mg/L). The “MIC of meropenem in combination with the inhibitor (MER + inhibitor)” value in assay [8] (inhibitor at constant 4 mg/L) is 0.125 µg/mL; in [9] (inhibitor at constant 4 mg/L), less than 0.125 µg/mL; in [10] (inhibitor at constant 4 mg/L), 0.125 µg/mL. The “MIC of imipenem in combination with the inhibitor (IMI + inhibitor)” value in assay [2] (inhibitor at constant 4 mg/L) is 0.25 µg/mL; in assay [3] (inhibitor at constant 4 mg/L), 0.5 µg/mL; in [4] (inhibitor at constant 4 mg/L), less than 0.125 µg/mL; in assay [6] (inhibitor at constant 4 mg/L), less than 0.125 µg/mL; in [7] (inhibitor at constant 4 mg/L) it was less than 0.125 µg/mL; in assay [8] (inhibitor at constant 4 mg/L), 0.25 µg/mL. Further, the “MIC of imipenem in combination with the inhibitor (IMI + inhibitor)” value in [9] (inhibitor at constant 4 mg/L) and in assay [10] (inhibitor at constant 4 mg/L) was 1.0 µg/mL each time.
With `Cn1cnc(S(=O)(=O)NC(=N)[C@@H]2CC[C@@H]3CN2C(=O)N3OS(=O)(=O)[O-])c1.[Na+]` [Ex. 7, Sodium (2S,5R)-2-(N-((1-methyl-1H-imidazol-4-yl)sulfonyl)carbamimidoyl)-7-oxo-1,6-diazabicyclo[3.2.1]octan-6-yl sulfate], the MIC in [1] (setting [11]), in assay [2] (setting [12]), in assay [3] (setting [12]), in assay [4] (setting [12]), in [5] and in assay [6] (setting [12]) was more than 64 µg/mL in each case. Further, the MIC in assay [7] (setting [12]), in assay [8] (setting [12]) and in [9] (setting [12]) was more than 64 µg/mL each time.
As for `C[C@@H](O)[C@H]1C(=O)N2C(C(=O)O)=C(SCCN=CN)C[C@H]12` [IMI, imipenem, reference compound], the MIC in [1] (read-out: MIC, IMI Alone) was 2 µg/mL; in [2] (setting [13]), 0.5 µg/mL; in [3] (setting [13]) it was 0.5 µg/mL; in [4] (setting [13]) it was 4 µg/mL; in assay [6] (setting [13]) it was 0.5 µg/mL; in assay [7] (setting [13]) it was 4 µg/mL. Besides, the results for the MIC in assay [8] (setting [13]), in assay [9] (setting [13]) and in assay [10] (setting [13]) were 2 µg/mL, 4 µg/mL and 2 µg/mL, respectively.
In the case of `C[C@@H](O)[C@H]1C(=O)N2C(C(=O)O)=C(S[C@@H]3CN[C@H](C(=O)N(C)C)C3)[C@H](C)[C@H]12` [MER, meropenem, reference compound], the MIC in assay [1] (read-out: MIC, MER Alone) turned out to be 2 µg/mL; in assay [2] (setting [14]), 4 µg/mL; in assay [3] (setting [14]), 4 µg/mL; in [4] (setting [14]), 4 µg/mL; in [6] (setting [14]), 4 µg/mL; in [7] (setting [14]), 2 µg/mL. The MIC in assay [8] (setting [14]), in assay [9] (setting [14]) and in [10] (setting [14]) was 4 µg/mL each time.

Values taken from patent publication US12410166B2, “Sulfonylamidine substituted compounds and their use as beta-lactamase inhibitors” (NINGXIA ACADEMY OF AGRICULTURE AND FORESTRY SCIENCES, priority 2021, dated 2025).
